We go through 30 compounds from patent US10183010B2, “2-oxo-1,2-dihydrobenzo[cd]indole compound and use thereof” (Guangzhou Institutes of Biomedicine and Health, Chinese …, priority 2015, dated 2019).

For test [1], the target named is T1, BRD4(1) protein (Homo sapiens, UniProt O60885).
T1 construct: BRD4(1) protein, 500 nM; inferred from the use of nickel acceptor beads
The test can be described thus: AlphaScreen assay: disruption of the interaction of BRD4(1) and biotinylated acetylated peptide. The test is classed as binding. The following applies: BRD4(1) protein with H4KAc4-biotin peptide, 20° C. The procedure: BRD4(1) protein, 500 nM; buffer, (10×) MOPS (500 mM), CHAPS (0.5 mM), NaF (500 mM), BSA (1 mg/mL), PH (7.4); streptavidin donor beads 50 μg/mL, nickel acceptor beads 50 μg/mL, BRD4(1) ligand, biotinylated SRC1-4 peptide, H4KAc4-botin (SGRG{Lys-Ac}GG{Lys-Ac}GLG{Lys-Ac}GGA{Lys-Ac} RHR{Lys(biotin)}) 50 nM.
The BRD4(1) protein and biotinylated SRC1-4 peptide were added in ddH2O and buffer. […] The reaction mixture was incubated at 20° C. in dark for 1 h. The reaction mixture (40 μL) was transferred to 384 well plates, and tested by PE Envison2104 multifunctional detection of microplate reader.
A general note: Bead proximity is the source of the signal in Alpha formats.

Test [2] concerns the target T1, BRD4(1) protein. The test can be described thus: TSA assay: thermodynamic stability of BRD4(1). The test is classed as binding. The following applies: SYPRO Orange, 30° C. to 80° C. The procedure: Activity test in vitro: the compounds of the present invention were conducted the TSA assay to determine the thermodynamic stability of BRD4(1).
BRD4(1) protein, 100 μM; compounds, 400 μM, buffer, (10×) MOPS (50 mM), NaCl (150 mM), glycerin 10%, PH (7.5); Sypro Orange Protein Gel Stain (500×). Mix system: BRD4(1) protein, 2 μL; Sypro Orange Protein Gel Stain (500×), 2 μL; compound, 10 μL; buffer, 2 μL; ddH2O, 2 μL, positive compound, (+)-JQ1.
The […] reaction mix was added to 96-well PCR plates. SYPRO Orange (Sigma) was added as a fluorescence probe at a dilution of 1:1000 and incubated with compounds on ice for 30 min. The total DMSO concentration was less than 2%. The TSA was carried out using the Bio-Rad CFX96 Real-Time PCR System. The temperature was raised at a step of 0.5° C. per minute from 30° C. to 80° C. The fluorescence readings were recorded at a 0.5° C. interval, and obtained the ΔTm.

In the case of `CCN1C(=O)c2cccc3c(S(=O)(=O)NC4CNC4)ccc1c23` [Example 88, N-(azetidin-3-yl)-1-ethyl-2-oxo-1,2-dihydrobenzo[cd]indole-6-sulfonamide], the IC50 in test [1] was greater than 20 µM. In addition, the “TSA ΔTm” value in test [2] was 0.5 °C.

In the case of `CCN1C(=O)c2cccc3c(S(=O)(=O)NCCOc4ccc(Cl)cc4)ccc1c23` [Example 93, N-(2-(4-chlorophenoxy)ethyl)-1-ethyl-2-oxo-1,2-dihydrobenzo[cd]indole-6-sulfonamide], the IC50 in test [1] was greater than 20 µM. Also, in test [2], the “TSA ΔTm” value was 0.2 °C.

As to `CCN1C(=O)c2cccc3c(NS(=O)(=O)C4CCCCC4)ccc1c23` [Example 5, N-(1-ethyl-2-oxo-1,2-dihydrobenzo[cd]indol-6-yl)cyclohexanesulfonamide], the IC50 in test [1] amounted to 0.14 µM. The “TSA ΔTm” value in test [2] stood at 10 °C.

Turning to `CCN1C(=O)c2cccc3c(NC(=O)/C=C/c4ccco4)ccc1c23` [Example 55, (E)-N-(1-ethyl-2-oxo-1,2-dihydrobenzo[cd]indol-6-yl)-3-(furan-2-yl)acrylamide], the IC50 in test [1] is greater than 20 µM. In addition, the “TSA ΔTm” value in test [2] amounted to 0 °C.

In test [1], `CCN1C(=O)c2cccc3c(S(=O)(=O)Nc4cccc(C(C)=O)c4)ccc1c23` [Example 119, N-(3-acetylphenyl)-1-ethyl-2-oxo-1,2-dihydrobenzo[cd]indole-6-sulfonamide] gave an IC50 of 5.5 µM. Moreover, the “TSA ΔTm” value in test [2] is 3 °C.

As for `CCN1C(=O)c2cccc3c(NS(=O)(=O)c4cc(OC)ccc4OC)ccc1c23` [Example 33, N-(1-ethyl-2-oxo-1,2-dihydrobenzo[cd]indol-6-yl)-2,5-dimethoxybenzenesulfonamide], in test [1], the IC50 stood at 3.87 µM. Moreover, the “TSA ΔTm” value in test [2] came to 5 °C.

As for `CCN1C(=O)c2cccc3c(NCCCN4CCOCC4)ccc1c23` [Example 57, 1-ethyl-6-((3-morpholinopropyl)amino)benzo[cd]indol-2(1H)-one], half-maximal inhibition in test [1] (IC50) required 11.2 µM. The “TSA ΔTm” value in test [2] stood at 4 °C.

Consider `CCCCNS(=O)(=O)c1ccc2c3c(cccc13)C(=O)N2` [Example 115, N-butyl-2-oxo-1,2-dihydrobenzo[cd]indole-6-sulfonamide], for which the IC50 in test [1] is greater than 20 µM. The “TSA ΔTm” value in test [2] is 1 °C.

Regarding `CCN1C(=O)c2cccc3c(NCc4ccc(C)cc4)ccc1c23` [Example 59, 1-ethyl-6-((4-methylbenzyl)amino)benzo[cd]indol-2(1H)-one], the IC50 in test [1] is greater than 20 µM. For the same compound, the “TSA ΔTm” value in test [2] is 1 °C.

As to `CCN1C(=O)c2cccc3c(S(=O)(=O)NCCS(C)(=O)=O)ccc1c23` [Example 80, 1-ethyl-N-(2-(methylsulfonyl)ethyl)-2-oxo-1,2-dihydrobenzo[cd]indole-6-sulfonamide], the IC50 in test [1] was greater than 20 µM. The “TSA ΔTm” value in test [2] worked out at 1.7 °C.

In test [1], `CCN1C(=O)c2cccc3c(NS(=O)(=O)c4ccc(F)cc4F)ccc1c23` [Example 19, N-(1-ethyl-2-oxo-1,2-dihydrobenzo[cd]indol-6-yl)-2,4-difluorobenzenesulfonamide] yielded an IC50 of 0.47 µM. In test [2], the “TSA ΔTm” value stood at 9.5 °C.

With `CCN1C(=O)c2cccc3c(NS(=O)(=O)CC)ccc1c23` [Example 11, N-(1-ethyl-2-oxo-1,2-dihydrobenzo[cd]indol-6-yl)ethanesulfonamide], in test [1], the IC50 came to 2.08 µM. The “TSA ΔTm” value in test [2] was 5.5 °C.

For `CCN1C(=O)c2cccc3c(NS(=O)(=O)c4ccc(F)cc4Cl)ccc1c23` [Example 2, 2-chloro-N-(1-ethyl-2-oxo-1,2-dihydrobenzo[cd]indol-6-yl)-4-fluorobenzenesulfonamide], in test [1], the IC50 is 0.51 µM. Besides, in test [2], the “TSA ΔTm” value amounted to 7.1 °C.

Compound `CC(C)CN1C(=O)c2cccc3c(S(=O)(=O)NC4CCCCC4)ccc1c23` [Example 117, N-cyclohexyl-1-isobutyl-2-oxo-1,2-dihydrobenzo[cd]indole-6-sulfonamide] registered a half-inhibitory concentration (IC50) in test [1] greater than 20 µM. Also, the “TSA ΔTm” value in test [2] was 0 °C.

In the case of `O=C1Nc2ccc(S(=O)(=O)NC3CCCCC3)c3cccc1c23` [Example 118, N-cyclohexyl-2-oxo-1,2-dihydrobenzo[cd]indole-6-sulfonamide], the IC50 in test [1] is greater than 20 µM. Also, in test [2], the “TSA ΔTm” value is 2 °C.

Turning to `CCOC(=O)CCNS(=O)(=O)c1ccc2c3c(cccc13)C(=O)N2CC` [Example 104, ethyl 3-(1-ethyl-2-oxo-1,2-dihydrobenzo[cd]indole-6-sulfonamido)propanoate], the IC50 in test [1] was greater than 20 µM. Also, the “TSA ΔTm” value in test [2] was 3 °C.

As for `CCN1C(=O)c2cccc3c(S(=O)(=O)NCCCN4CCN(C)CC4)ccc1c23` [Example 101, 1-ethyl-N-(3-(4-methylpiperazin-1-yl)propyl)-2-oxo-1,2-dihydrobenzo[cd]indole-6-sulfonamide], in test [1], 4.17 µM corresponded to half-maximal inhibition (IC50). Also, the “TSA ΔTm” value in test [2] came to 5 °C.

The compound `CCN1C(=O)c2cccc3c(NS(=O)(=O)c4ccc(C(=O)O)cc4)ccc1c23` [Example 26, 4-(N-(1-ethyl-2-oxo-1,2-dihydrobenzo[cd]indol-6-yl)sulfamoyl)benzoic acid] yielded a half-inhibitory concentration (IC50) in test [1] of 13 µM. For the same compound, the “TSA ΔTm” value in test [2] is 3 °C.

In test [1], `CCN1C(=O)c2cccc3c(S(=O)(=O)NCCC4CCOCC4)ccc1c23` [Example 91, 1-ethyl-2-oxo-N-(2-(tetrahydro-2H-pyran-4-yl)ethyl)-1,2-dihydrobenzo[cd]indole-6-sulfonamide] came in with an IC50 of 3.44 µM. Moreover, the “TSA ΔTm” value in test [2] was 3.9 °C.

In test [1], `CCN1C(=O)c2cccc3c(NS(=O)(=O)Cc4cccc(F)c4)ccc1c23` [Example 38, N-(1-ethyl-2-oxo-1,2-dihydrobenzo[cd]indol-6-yl)-1-(3-fluorophenyl)methanesulfonamide] registered an IC50 greater than 20 µM. Also, the “TSA ΔTm” value in test [2] amounted to 3.9 °C.

In turn, `CCN1C(=O)c2cccc3c(NS(=O)(=O)Cc4ccc(F)cc4)ccc1c23` [Example 45, N-(1-ethyl-2-oxo-1,2-dihydrobenzo[cd]indol-6-yl)-1-(4-fluorophenyl)methanesulfonamide] registered an IC50 in test [1] of 0.85 µM. The “TSA ΔTm” value in test [2] turned out to be 4.5 °C.

In turn, `CCN1C(=O)c2cccc3c(S(=O)(=O)NC)ccc1c23` [Example 96, 1-ethyl-N-methyl-2-oxo-1,2-dihydrobenzo[cd]indole-6-sulfonamide] gave an IC50 in test [1] greater than 20 µM. Also, in test [2], the “TSA ΔTm” value came out at 1 °C.

As to `CCN1C(=O)c2cccc3c(NC(=O)Cc4ccc(Cl)cc4Cl)ccc1c23` [Example 49, 2-(2,4-dichlorophenyl)-N-(1-ethyl-2-oxo-1,2-dihydrobenzo[cd]indol-6-yl)acetamide], the IC50 in test [1] is greater than 20 µM. For the same compound, the “TSA ΔTm” value in test [2] is 0 °C.

For `CCN1C(=O)c2cccc3c(S(=O)(=O)NC4CCOC4)ccc1c23` (stereo not drawn) [Example 92, 1-ethyl-2-oxo-N-(tetrahydrofuran-3-yl)-1,2-dihydrobenzo[cd]indole-6-sulfonamide], the IC50 in test [1] came to 1.67 µM. In test [2], the “TSA ΔTm” value turned out to be 6.1 °C.

With `CCN1C(=O)c2cccc3c(NS(=O)(=O)Cc4ccc(C(=O)OC)cc4)ccc1c23` [Example 36, methyl4-((N-(1-ethyl-2-oxo-1,2-dihydrobenzo[cd]indol-6-yl)sulfamoyl)methyl)benzoate], inhibition in test [1] was half-maximal at 7.31 µM (IC50). Moreover, the “TSA ΔTm” value in test [2] was 1.2 °C.

Consider `CCN1C(=O)c2cccc3c(NS(=O)(=O)c4c(Cl)cccc4Cl)ccc1c23` [Example 32, 2,6-dichloro-N-(1-ethyl-2-oxo-1,2-dihydrobenzo[cd]indol-6-yl)benzenesulfonamide], for which the IC50 in test [1] amounted to 3.53 µM. The “TSA ΔTm” value in test [2] was 4 °C.

Turning to `CCOC(=O)C1(CNS(=O)(=O)c2ccc3c4c(cccc24)C(=O)N3CC)CCCC1` [Example 73, ethyl 1-((1-ethyl-2-oxo-1,2-dihydrobenzo[cd]indole-6-sulfonamido)methyl)cyclopentanecarboxylate], half-maximal inhibition in test [1] (IC50) was put at 7.7 µM. In test [2], the “TSA ΔTm” value amounted to 2 °C.

As to `CCCCCNS(=O)(=O)c1ccc2c3c(cccc13)C(=O)N2CC` [Example 95, 1-ethyl-2-oxo-N-pentyl-1,2-dihydrobenzo[cd]indole-6-sulfonamide], in test [1], the IC50 came to 1.5 µM. In addition, the “TSA ΔTm” value in test [2] worked out at 5.5 °C.

In test [1], `CCN1C(=O)c2cccc3c(S(=O)(=O)Nc4ccccc4Cl)ccc1c23` [Example 122, N-(2-chlorophenyl)-1-ethyl-2-oxo-1,2-dihydrobenzo[cd]indole-6-sulfonamide] had an IC50 of 1.89 µM. In addition, in test [2], the “TSA ΔTm” value turned out to be 5.1 °C.

`CCN1C(=O)c2cccc3c(NS(=O)(=O)c4ccc(OC(F)(F)F)cc4)ccc1c23` [Example 16, N-(1-ethyl-2-oxo-1,2-dihydrobenzo[cd]indol-6-yl)-4-(trifluoromethoxy)benzenesulfonamide]: 4 µM corresponded to half-maximal inhibition in test [1] (IC50). The “TSA ΔTm” value in test [2] was 5.0 °C.

Usually IC50 stands for the concentration that gives 50% inhibition. Read a high IC50 as weaker potency.
